Experimental data as given in article PMC4890880 (ACS infectious diseases, 2016).
Where two headings read alike, the source gives them in different places.

Legend:
[1] = system: Plasmodium berghei (Pb-Luc) exoerythrocytic-stage parasites; assay: microbe, parasite or virus in culture
[2] = system: HepG2-A16-CD81EGFP cells; assay: cells; conditions: Homo sapiens; for IC50: HepG2, read-out: Tox IC50; for inhibition at 50 µM: HepG2, read-out: Tox max inhibition (%) @ 50 uM
[3] = read-out: Inhibition% @ 50 uM rep1
[4] = read-out: Inhibition% @ 50 uM rep2
[5] = read-out: PbLuc IC50, dose response, 1/3 dilutions, max conc. 10 or 50 uM, unit inferred
[6] = read-out: PbLuc max inhibition (%) @ 50 uM
[7] = HepG2, read-out: HepG2 Tox% @ 50 uM rep1
[8] = HepG2, read-out: HepG2 Tox% @ 50 uM rep2

Structure (SMILES)	inhibition at 50 µM [1, 3] [%]	inhibition at 50 µM [1, 4] [%]	IC50 [1, 5] [µM]	inhibition at 50 µM [1, 6] [%]	cytotoxicity at 50 µM [2, 7] [%]	cytotoxicity at 50 µM [2, 8] [%]	IC50 [2] [µM]	inhibition at 50 µM [2] [%]	IC50 ([1]; read-out: PbLuc IC50, dose response, unit inferred) [µM]
COc1ccc2c(c1)C1(Nc3ccccc3-c3nc4ccccc4n31)C(=O)N2 (stereo not shown) [MMV396749]	102	102	15.9	98	88	94	> 50	45	
O=C(NNc1cc(N2CCCC2)nc(N2CCCC2)n1)c1ccccc1 [MMV396770]	97	98			29				
CC(C)(C)CC(C)(C)NCC(O)COc1ccc(Cl)cc1Cl (stereo not shown) [MMV396794]	101	104	15.1	92	99	100	15.1	93	
COc1ccc(-c2c(C)nn3c(N)c(C#N)cnc23)cc1OC [MMV396797]	104	106	1.63	101	72	77	25.8	55	
Cc1cccc(-n2ncc3c(=O)[nH]c(-n4nc(C)cc4NC(=O)c4cc5ccccc5o4)nc32)c1 [MMV403679]	100	100			38	47			
O=C1C2=C(Nc3ccccc3SC2c2ccccc2)c2ccccc21 (stereo not shown) [MMV645672]	104	104			87				
CC(C)(C)c1ccc(O)c(CNC2CCCCC2)c1 [MMV665785]	99	102			97	99			
CC(NCc1ccccc1)c1cc(Cl)ccc1O (stereo not shown) [MMV665789]	103	100			72	89			
FC(F)(F)c1cccc(Nc2nc3ccccc3nc2Nc2cccc(C(F)(F)F)c2)c1 [MMV665794]	103	102	0.667	100	100		1.9	102	
CC(C)(C)CC(C)(C)NCC(O)COc1ccc2c(c1)CCC2 (stereo not shown) [MMV665817]	103	104			96	98			
CC1CC2=C(CC1CNCCCN(C)C)C(C)(C)CCC2 (stereo not shown) [MMV665830]	102	102			98				
O=C(Nc1ccc(Cl)c(Cl)c1)Nc1ccc(Cl)c(Cl)c1 [MMV665852]	103	104	0.669	100	100		4.86	101	
CCCCNc1nc(NC(C)(C)C)nc(NC(C)(C)C)n1 [MMV665864]	94	94	15.5	89	41		> 50	41	
Cc1cc(Nc2ccc(C)c(Cl)c2)n2nc(C(F)(F)F)nc2n1 [MMV665874]	102	102			93	95			
CC(C)(C)C(=O)Nc1ccc(C(=O)Nc2cccc(-c3nc4ccccc4[nH]3)c2)cc1 [MMV665879]	102	103			99	100			
CC(Oc1ccc(NC(=O)c2cccs2)cc1)C(=O)c1ccc(Cl)cc1 (stereo not shown) [MMV665886]	102	102			82				
c1ccc(-c2ccc(-c3nc4ccccc4[nH]3)cc2)cc1 [MMV665891]	103	105			39	30			
CC(=O)c1sc(NC(=O)Nc2ccc(C)cc2C)nc1C [MMV665894]	3.42	-0.396			-26				
O=C(Nc1ccc(CN2CCOCC2)cc1)c1ccc(-c2ccc(Br)cc2)o1 [MMV665901]	104	106			101	102			
Cc1ccc(-c2cc(C(=O)Nc3ccc(S(=O)(=O)N4CCCCC4)cc3)[nH]n2)c(O)c1 [MMV665906]	-12	30			-10	-5			

Structure (SMILES)	inhibition at 50 µM [1, 3] [%]	inhibition at 50 µM [1, 4] [%]	IC50 [1, 5] [µM]	inhibition at 50 µM [1, 6] [%]	cytotoxicity at 50 µM [2, 7] [%]	cytotoxicity at 50 µM [2, 8] [%]	IC50 [2] [µM]	inhibition at 50 µM [2] [%]	IC50 ([1]; read-out: PbLuc IC50, dose response, unit inferred) [µM]
O=C(Nc1nc(-c2ccccn2)cs1)c1ccccc1Br [MMV665909]	98	98			79	86			
O=C1c2ccccc2-c2nnc(-c3ccc(Br)cc3)cc21 [MMV665934]	1.49	29			-9				
Cc1ccc(S(=O)(=O)c2c(COC(=O)c3cccc(C)c3)c(-c3ccccc3)nn2C)cc1 [MMV665936]	102	103			27				
CN(C)c1ccc(C(O)(c2ccc(N(C)C)cc2)c2ccc(N(C)C)cc2)cc1 [MMV665941]	102	104	1.69	99	95	97	2.31	96	
Nc1ccc(-c2nc3cc(Cc4ccc5[nH]c(-c6ccc(N)cc6)nc5c4)ccc3[nH]2)cc1 [MMV665943]	103	104	10.1	97	99		14.6	95	
CC(C)=CCN1CCC(C(=O)Nc2ccc(-c3nc4ccccc4[nH]3)cc2)CC1 [MMV665946]	100	101			98	99			
O=C(Nc1ccc(F)c(Cl)c1)Nc1ccc(Cl)c(Cl)c1 [MMV665953]	103	102	0.85	101	97	98	5.02	99	
COc1cccc(C(=O)NC(c2ccc(C)cc2)c2cc(Cl)c3cccnc3c2O)c1 (stereo not shown) [MMV665969]	104	104	1.65	101	92		4.83	89	
Cc1ccc(OCCCCCCNCCO)c(C)c1 [MMV666020]	104	104			90				
Cc1ccc(-c2cc3c(nn2)-c2ccccc2C3=O)cc1 [MMV666021]	99	89			31	9			
c1ccc(Cn2c(N=Nc3c(Nc4ccccc4)ccc4ccccc34)nc3ccccc32)cc1 [MMV666023]	99	98	4.21	100	83	86	12	83	
COc1ccc(C(=O)NC(c2ccc(Cl)cc2Cl)c2cc(Cl)c3cccnc3c2O)cc1 (stereo not shown) [MMV666054]	100	102	1.58	101	98		12.7	88	
Cc1ccc2cc3c(N)c4c(C)ccc(C)c4nc3nc2c1 [MMV666079]	103	104		74	97		> 50	12	31.5
O=C(NC(c1ccccc1)c1ccc2cccnc2c1O)c1ccccc1 (stereo not shown) [MMV666080]	101	102	1.55	101	92	93	4	84	
C=C(C)CCC(C)N1CCC(N2CCC(C(=O)NCCc3ccccc3)CC2)CC1 (stereo not shown) [MMV666110]	101	99			91	97			
CC(=O)c1ccc(NC(=O)CSc2nc(-c3ccccc3Cl)ns2)cc1 [MMV666124]	104	104			96				
CC1=C(CC(=O)c2cccc([N+](=O)[O-])c2)C(=O)c2ccccc2C1=O [MMV666125]	103	104	4.26	99	100		21.1	99	
O=c1nc(C=Cc2ccc(Br)cc2)oc2ccccc12 [MMV666599]	102	103			70				
COc1cc(C(=O)ON=C(N)Cc2cccc3ccccc23)cc(OC)c1OC [MMV666687]	102	103	12.6	100	100		17.1	100	
Cc1cc(C=C2SC(=Nc3ccccc3)N(C3CCCC3)C2=O)c(C)n1-c1ccc(Cl)cc1 [MMV666688]	14	0.839			-4.47	-11			
